Entries after “also recorded” stand apart in the source; their conditions may differ.
System: pRb/MDM2 complex
Experiment: pRb immunoprecipitation and anti-MDM2 immunoblot from TSA-treated T98G cells
Format: cell-based
Details: TSA 5 μM for 18-20 h, FIG. 4g
Description: Conversely, conditions that enhance acetylation would be expected to promote the interaction of pRb with MDM2. To this end, we treated T98G cells with trichostatin A (TSA), which blocks histone deacetylase (HDAC) activity 18 and thereafter assessed the interaction between pRb and MDM2.
For immunoprecipitation of endogenous acetylated pRb, cell pellets collected from SAOS2, U2OS, T98G, A31, and HEK293 cells were lysed in IPH buffer (50 mM Tris pH 8.0, 150 mM NaCl, 0.5% NP-40, protease inhibitor cocktail (Roche), 5mM EDTA, 5 μM TSA (Sigma)). The protein concentration of the extracts was determined by Bradford assay (BioRad). Protein-A-agarose was first incubated with anti-Rb antibody IF8 and C15 for 1-2 h at 4 C. […] Proteins bound to the beads were elute with 3×SDS loading buffer and analysed by Western blotting using appropriated antibodies. […]
Domains in E1A for p300-Dependent Acetylation of pRb and Acetylated pRb Binds to MDM2. • a) In vitro acetylation assay in which Flag-tagged p3001135-2414 (0.3 μg) together with GST-pRb (2 μg) was incubated with either wild-type GST-E1A, GST-Δ36 or GST-pm928 (1 μg) as indicated. The effect of the buffer (track 5) or GST (1 μg; track 1) alone was also assessed. The quantification of the level of p300 autoacetylation (b) and pRb acetylation (c) in the presence of the E1A derivatives is shown. […]

SMILES: CC(/C=C/C(=O)NO)=C\[C@@H](C)C(=O)c1ccc(N(C)C)cc1 [TSA, trichostatin A]
- interaction between pRb and MDM2 (pRb/MDM2 complex in pRb immunoprecipitate): presence of MDM2 in the pRb immunocomplex; also recorded: clearly detectable; also recorded: augments the interaction between pRb and MDM2

Source: patent US7238493B2, “Acetylation of pRb by p300 assay method for compounds which modulate this process” (The University Court of the University of Glasgow, priority 2000, dated 2007)
